Tests used:
full-length CRBN = target: T1, full-length CRBN (Homo sapiens, UniProt Q96SW2); assay: Full-length CRBN MG-PACE circuit luminescence assay; format: cell-based; conditions: pomalidomide; degron SD0; vs DMSO
T1 construct: Full-length CRBN MG-PACE circuit; expressed in transfected cells; host or cells: E. coli S2060
Description: To evolve ZFs that engage PT-179-bound CRBN, we constructed an MG-PACE circuit using the CRBN•IMiD•ZF molecular glue complex. […] We translationally fused CRBN to the DNA-binding protein RR69 and fused SD0 to the RNAP ω-subunit, then measured transcriptional activation by luminescence (Fig. 2A).
Chemically competent S2060 cells were co-transformed with accessory and complementary plasmids (Table S1).

CRBNCTD = CRBNCTD (Homo sapiens, UniProt Q96SW2); assay: CRBNCTD MG-PACE circuit luminescence assay; format: cell-based; conditions: pomalidomide; degron SD0; vs DMSO
CRBNCTD, sequence (Q96SW2 318-426 limits assumed): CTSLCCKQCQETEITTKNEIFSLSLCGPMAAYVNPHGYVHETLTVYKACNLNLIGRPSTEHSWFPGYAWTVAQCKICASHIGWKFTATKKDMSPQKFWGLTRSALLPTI
Description: We also explored anchoring the circuit with the CRBN C-terminal domain (CTD) alone, which contains the IMiD binding pocket (Fig. 2B) ([65], [69]). […] We attributed the difference in maximum circuit activation to poor expression of full-length CRBN in E. coli. In our initial efforts, we used the CRBNCTD MG-PACE circuit, hypothesizing that higher activation (lower selection stringency) would better support weak-binding SD0 variants in the early stages of evolution.
Chemically competent S2060 cells were co-transformed with accessory and complementary plasmids (Table S1). Cells were plated on LB agar supplemented with carbenicillin, spectinomycin, and tetracycline and grown overnight at 37 °C. Single colonies were seeded in 1 mL DRM with carbenicillin and spectinomycin and grown overnight in a 37 °C shaker at 220 rpm. Overnight cultures were back-diluted 1:100 in DRM with carbenicillin and spectinomycin and grown at 37 °C with shaking until OD600 values reached 0.3-0.4. Polymyxin B nonapeptide (PMBN) was added to a final concentration of 3 μg/mL culture from a 1000x stock (3 mg/mL in DMSO). […] 96-well plates were then incubated in an Infinite M1000 Pro microplate reader (Tecan) at 37 °C with continuous shaking for ~1 hour prior to reading A600 nm and luminescence values. Raw luminescence values were then divided by the corresponding A600 nm values to normalize to cell density.

[1] = tested on: SD40 fusions with Nluc, Fluc, and PRKRA; assay: Immunoblot, degradation of exogenously expressed SD40 fusion proteins in HEK293T cells; format: cell-based, human
Method: To test the versatility of SD40, we generated five stable HEK293T cell lines that exogenously express N- or C-terminal SD40 fusions with Nluc, Fluc, and the kinase activator PRKRA. […] To investigate whether SD40 targets unintended neosubstrates for degradation, we performed global proteomics using HEK293T cells stably expressing SD40–eGFP.
HEK293T or K562 cells were plated at a density of 1.6 x 10^5 cells/well in a 24-well plate coated with poly-D-lysine (Corning) in 1 mL media (DMEM + 10% FBS for HEK293T cells and RPMI + 10% FBS for K562 cells). After 16–18 hrs, cells were treated with either DMSO or the indicated concentration of small molecules to a 0.5% final concentration of DMSO. Plates were incubated at 37 °C, 5% CO2 for 24 hours for all cell lines except endogenously tagged PLK1–SD40 HEK293T cells, which were incubated for 2 hours. Cells were washed with PBS and then lysed for 30 minutes at 4 °C in radioimmunoprecipitation assay (RIPA; 25 mM Tris-HCl, 150 mM NaCl, 1% NP-40, 1% sodium deoxycholate, 0.1% SDS, pH ~ 7.6) buffer containing 1 mM phenylmethylsulfonyl fluoride (PMSF; Sigma Aldrich) and 1 x EDTA-free protease inhibitor cocktail (Roche). Lysates were centrifuged for 20 min @18,000 x g to isolate the soluble fractions. Protein concentration in clarified lysates was quantified using Pierce BCA Protein Assay Kit (Thermo Scientific) according to the manufacturer’s protocol. Clarified lysates were mixed with NuPAGE LDS Sample Buffer (Thermo NP0007) containing 10 mM DTT and boiled for 10 minutes. Gel electrophoresis was performed on boiled samples using polyacrylamide gels (Invitrogen NP0329BOX) with equal amounts of total protein in each lane. Proteins were transferred to nitrocellulose membranes (Invitrogen IB23001) using the iBlot 2 (Invitrogen IB21001) P0 protocol. After transfer, membranes were blocked in blocking buffer (50 mM Tris-HCl, 150 mM NaCl, 0.5% Tween-20, 1% bovine serum albumin, pH 7.4) for 1 hr at RT and then incubated with primary antibody overnight at 4 °C in blocking buffer. […]

T1 sequence (Q96SW2 whole entry): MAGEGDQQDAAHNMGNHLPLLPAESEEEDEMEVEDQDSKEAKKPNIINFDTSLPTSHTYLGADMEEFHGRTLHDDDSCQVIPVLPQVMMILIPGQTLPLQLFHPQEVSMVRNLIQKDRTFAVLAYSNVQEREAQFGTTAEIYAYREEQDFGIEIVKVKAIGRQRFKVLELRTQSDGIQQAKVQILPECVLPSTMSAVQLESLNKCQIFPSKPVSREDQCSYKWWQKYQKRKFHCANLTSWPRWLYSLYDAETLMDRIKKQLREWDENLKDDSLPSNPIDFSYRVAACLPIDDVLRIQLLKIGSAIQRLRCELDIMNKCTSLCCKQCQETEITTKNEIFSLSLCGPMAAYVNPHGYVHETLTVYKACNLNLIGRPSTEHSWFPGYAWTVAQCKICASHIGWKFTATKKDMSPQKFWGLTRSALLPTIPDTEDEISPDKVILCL

| SMILES | maximal transcriptional activation (full-length CRBN) [fold] | transcriptional activation at the highest dose (CRBNCTD) [fold] | time at which PRKRA degradation occurred ([1]; 1 μM PT-179, SD40-PRKRA) [min] | time to near complete PRKRA degradation (in words) ([1]; 1 μM PT-179, SD40-PRKRA) | degradation of N- or C-terminal SD40 fusion constructs (in words) ([1]; 24 hrs, 1 nM-10 µM) |
| --- | --- | --- | --- | --- | --- |
| Nc1cccc2c1C(=O)N(C1CCC(=O)NC1=O)C2=O (centres unmarked) [pomalidomide, reference compound] | 7 | 13 |  |  |  |
| O=C1CCC(N2C(=O)c3ccc(N4CCOCC4)cc3C2=O)C(=O)N1 (centres unmarked) [PT-179] |  |  | ≤ 10 | nearly complete within one hour | robust dose-dependent degradation |

Reference: publication PMC11203266, “Continuous evolution of compact protein degradation tags regulated by selective molecular glues” (Science (New York, N.Y.), 2024)
